Data as given in the NIST ThermoML archive (doi:10.1016/j.fluid.2011.11.022).

Details: Liquid; for mass density: Buoyancy - hydrostatic balance; for viscosity: Falling or rolling sphere viscometry

OCCO [1,2-ethanediol]
Details | mass density [kg/m3] | viscosity [mPa·s]
293.15 K, 98 kPa | 1113.58 | 21.1
293.15 K, 49030 kPa | 1134.56 | 26.75
293.15 K, 98060 kPa | 1147.72 | 33.42
293.15 K, 147100 kPa | 1159.85 | 41.19
293.15 K, 196130 kPa | 1173.34 | 50.33
293.15 K, 245160 kPa | 1185.44 | 60.43
312.46 K, 98 kPa | 1100.88 | 9.925
312.46 K, 98060 kPa | 1139.02 | 14.82
312.49 K, 49030 kPa | 1123.04 | 12.24
312.49 K, 147100 kPa | 1153.18 | 17.64
312.65 K, 245160 kPa | 1179.39 | 24.69
334.87 K, 98 kPa | 1085.13 | 4.949
335 K, 49030 kPa | 1108.43 | 5.952
335.3 K, 98060 kPa | 1127.05 | 7.031
335.35 K, 245160 kPa | 1169.07 | 11.15
335.43 K, 147100 kPa | 1143.57 | 8.234
335.45 K, 196130 kPa | 1156.71 | 9.608
349.24 K, 98 kPa | 1074.46 | 3.517
349.5 K, 49030 kPa | 1098.33 | 4.157
349.65 K, 98060 kPa | 1118.59 | 4.89
349.67 K, 147100 kPa | 1136.69 | 5.688
349.8 K, 196130 kPa | 1149.28 | 6.541
349.91 K, 245160 kPa | 1161.91 | 7.454
365.7 K, 98 kPa | 1061.7 | 2.39
366.1 K, 49030 kPa | 1086.11 | 2.816
366.15 K, 98060 kPa | 1107.99 | 3.302
366.37 K, 147100 kPa | 1127.71 | 3.812
366.48 K, 196130 kPa | 1139.94 | 4.344
366.8 K, 245160 kPa | 1153.08 | 4.889
380.15 K, 98060 kPa | 1098.24 | 2.558
380.82 K, 98 kPa | 1049.47 | 1.872
381 K, 49030 kPa | 1074.54 | 2.207
381.2 K, 196130 kPa | 1131.06 | 3.345
381.27 K, 147100 kPa | 1118.88 | 2.932
381.3 K, 245160 kPa | 1145.04 | 3.784
395.55 K, 98 kPa | 1037.07 | 1.419
395.6 K, 49030 kPa | 1062.66 | 1.673
395.61 K, 98060 kPa | 1086.68 | 1.936
395.65 K, 147100 kPa | – | 2.214
395.73 K, 196130 kPa | 1121.71 | 2.501
395.8 K, 245160 kPa | 1136.57 | 2.811
421.7 K, 98 kPa | 1013.93 | 0.96
421.71 K, 49030 kPa | 1040.05 | 1.174
421.8 K, 98060 kPa | 1065.2 | 1.345
421.9 K, 147100 kPa | 1090.87 | 1.521
422 K, 196130 kPa | – | 1.716
422 K, 245160 kPa | 1120.22 | 1.898
464.4 K, 98 kPa | 972.98 | 0.652
464.47 K, 98060 kPa | 1025.08 | 0.97
464.53 K, 196130 kPa | 1069.52 | 1.203
464.53 K, 245160 kPa | 1090.75 | 1.356
464.54 K, 147100 kPa | 1055.29 | 1.11
464.6 K, 49030 kPa | 999.13 | 0.877
